# According to patent US10233182B2, “Substituted spirocyclic inhibitors of autotaxin” (X-Rx, Inc., priority 2014, dated 2019):
# Counter-ions that a name gives are not always drawn.
# Target: Autotaxin (Homo sapiens (Human), UniProt Q13822)
# Assay: Autotaxin LPC Cascade Assay
# Type: biochemical
# Settings: Autotaxin 5 nM, LPC 100 μM, choline oxidase/HRP/Ampliflu Red fluorescence read-out, 2% DMSO, RT; read-out: IC50 ATX Activity
# How it was run: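 Choline liberated from LPC by autotaxin during 1 h, after a 10-min RT compound preincubation, was converted through choline oxidase/HRP to a fluorescent Ampliflu Red product.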
row,SMILES,IC50 [µM]
1,"COc1ccc(CN2C(=O)N(C)C(=O)C23CCN(C(=O)[C@H](NC(=O)c2cc(C(F)(F)F)ccc2F)C(C)C)CC3)c(F)c1 [Example 108, (R)-2-Fluoro-N-(1-(1-(2-fluoro-4-methoxybenzyl)-3-methyl-2,4-dioxo-1,3,8-triazaspiro[4.5]decan-8-yl)-3-methyl-1-oxobutan-2-yl)-5-(trifluoromethyl)benzamide]",< 0.5
2,"CN1C(=O)N(Cc2ccc3nccnc3c2)C2(CCN(C(=O)[C@H](NC(=O)c3cc(C(F)(F)F)ccc3F)C3CC3)CC2)C1=O [Example 109, (R)—N-(1-Cyclopropyl-2-(3-methyl-2,4-dioxo-1-(quinoxalin-6-ylmethyl)-1,3,8-triazaspiro[4.5]decan-8-yl)-2-oxoethyl)-2-fluoro-5-(trifluoromethyl)benzamide]",< 0.5
3,"CN1C(=O)N(Cc2ccc3nccnc3c2)C2(CCN(C(=O)[C@H](NC(=O)c3cc(C(F)(F)F)ccc3F)C3CCC3)CC2)C1=O [Example 110, (R)—N-(1-Cyclobutyl-2-(3-methyl-2,4-dioxo-1-(quinoxalin-6-ylmethyl)-1,3,8-triazaspiro[4.5]decan-8-yl)-2-oxoethyl)-2-fluoro-5-(trifluoromethyl)benzamide]",< 0.5
4,"CC(C)[C@@H](NC(=O)c1cc(C(F)(F)F)ccc1F)C(=O)N1CCC2(CC1)C(=O)N(C)C(=O)N2Cc1ncccn1 [Example 111, (R)-2-Fluoro-N-(3-methyl-1-(3-methyl-2,4-dioxo-1-(pyrimidin-2-ylmethyl)-1,3,8-triazaspiro[4.5]decan-8-yl)-1-oxobutan-2-yl)-5-(trifluoromethyl)benzamide]",≥ 1
5,"CN1C(=O)N(Cc2ccc3nccnc3c2)C2(CCN(C(=O)[C@H](NC(=O)c3cc(C(F)(F)F)ccc3F)C3CCCC3)CC2)C1=O [Example 112, (R)—N-(1-Cyclopentyl-2-(3-methyl-2,4-dioxo-1-(quinoxalin-6-ylmethyl)-1,3,8-triazaspiro[4.5]decan-8-yl)-2-oxoethyl)-2-fluoro-5-(trifluoromethyl)benzamide]",< 0.5
6,CC(C)[C@@H](NC(=O)c1cc(C(F)(F)F)ccc1F)C(=O)N1CCC2(CC1)C(=O)N(C)C(=O)N2Cc1ccnc(C#N)c1 [Example 113],≥ 1
7,"Cc1nc2cc(CN3C(=O)N(C)C(=O)C34CCN(C(=O)[C@H](NC(=O)c3cc(C(F)(F)F)ccc3F)C(C)C)CC4)ccn2n1 [Example 114, (R)-2-Fluoro-N-(3-methyl-1-(3-methyl-1-((2-methyl-[1,2,4]triazolo[1,5-a]pyridin-7-yl)methyl)-2,4-dioxo-1,3,8-triazaspiro[4.5]decan-8-yl)-1-oxobutan-2-yl)-5-(trifluoromethyl)benzamide]",≥ 1
8,"CC(C)[C@@H](NC(=O)c1cc(C(F)(F)F)ccc1F)C(=O)N1CCC2(CC1)C(=O)N(C)C(=O)N2Cc1cnn(C)c1 [Example 115, (R)-2-Fluoro-N-(3-methyl-1-(3-methyl-1-((1-methyl-1H-pyrazol-4-yl)methyl)-2,4-dioxo-1,3,8-triazaspiro[4.5]decan-8-yl)-1-oxobutan-2-yl)-5-(trifluoromethyl)benzamide]",≥ 1
9,"Cc1nc2cc(CN3C(=O)N(C)C(=O)C34CCN(C(=O)[C@H](NC(=O)c3cc(C(F)(F)F)ccc3F)C(C)C)CC4)ccc2o1 [Example 116, (R)-2-Fluoro-N-(3-methyl-1-(3-methyl-1-((2-methylbenzo[d]oxazol-5-yl)methyl)-2,4-dioxo-1,3,8-triazaspiro[4.5]decan-8-yl)-1-oxobutan-2-yl)-5-(trifluoromethyl)benzamide]",< 0.5
10,"Cc1csc(CN2C(=O)N(C)C(=O)C23CCN(C(=O)[C@H](NC(=O)c2cc(C(F)(F)F)ccc2F)C(C)C)CC3)n1 [Example 117, (R)-2-Fluoro-N-(3-methyl-1-(3-methyl-1-((4-methylthiazol-2-yl)methyl)-2,4-dioxo-1,3,8-triazaspiro[4.5]decan-8-yl)-1-oxobutan-2-yl)-5-(trifluoromethyl)benzamide]",≥ 1
11,"Cc1nc2ccc(CN3C(=O)N(C)C(=O)C34CCN(C(=O)[C@H](NC(=O)c3cc(C(F)(F)F)ccc3F)C(C)C)CC4)cc2o1 [Example 118, (R)-2-Fluoro-N-(3-methyl-1-(3-methyl-1-((2-methylbenzo[d]oxazol-6-yl)methyl)-2,4-dioxo-1,3,8-triazaspiro[4.5]decan-8-yl)-1-oxobutan-2-yl)-5-(trifluoromethyl)benzamide]",< 0.5
12,"COc1ccc(CN2C(=O)N(C)C(=O)C23CCN(C(=O)[C@H](NC(=O)c2cc(C(F)(F)F)ccc2F)C(C)C)CC3)c(Cl)c1 [Example 119, (R)—N-(1-(1-(2-Chloro-4-methoxybenzyl)-3-methyl-2,4-dioxo-1,3,8-triazaspiro[4.5]decan-8-yl)-3-methyl-1-oxobutan-2-yl)-2-fluoro-5-(trifluoromethyl)benzamide]",< 0.5
13,"CC(C)[C@@H](NC(=O)c1cc(C(F)(F)F)ccc1F)C(=O)N1CCC2(CC1)C(=O)N(C)C(=O)N2Cc1ccc(=O)n(C)c1 [Example 120, (R)-2-Fluoro-N-(3-methyl-1-(3-methyl-1-((1-methyl-6-oxo-1,6-dihydropyridin-3-yl)methyl)-2,4-dioxo-1,3,8-triazaspiro[4.5]decan-8-yl)-1-oxobutan-2-yl)-5-(trifluoromethyl)benzamide]",0.5 to 1
14,"CC(=O)N1CC(CN2C(=O)N(C)C(=O)C23CCN(C(=O)[C@H](NC(=O)c2cc(C(F)(F)F)ccc2F)C(C)C)CC3)C1 [Example 121, (R)—N-(1-(1-((1-Acetylazetidin-3-yl)methyl)-3-methyl-2,4-dioxo-1,3,8-triazaspiro[4.5]decan-8-yl)-3-methyl-1-oxobutan-2-yl)-2-fluoro-5-(trifluoromethyl)benzamide]",≥ 1
15,"CC(C)[C@@H](NC(=O)c1cc(C(F)(F)F)ccc1F)C(=O)N1CCC2(CC1)C(=O)N(C)C(=O)N2C [Example 122, (R)—N-(1-(1,3-Dimethyl-2,4-dioxo-1,3,8-triazaspiro[4.5]decan-8-yl)-3-methyl-1-oxobutan-2-yl)-2-fluoro-5-(trifluoromethyl)benzamide]",≥ 1
16,"CCN1C(=O)N(C)C(=O)C12CCN(C(=O)[C@H](NC(=O)c1cc(C(F)(F)F)ccc1F)C(C)C)CC2 [Example 123, (R)—N-(1-(1-Ethyl-3-methyl-2,4-dioxo-1,3,8-triazaspiro[4.5]decan-8-yl)-3-methyl-1-oxobutan-2-yl)-2-fluoro-5-(trifluoromethyl)benzamide]",≥ 1
17,"CC(C)CCN1C(=O)N(C)C(=O)C12CCN(C(=O)[C@H](NC(=O)c1cc(C(F)(F)F)ccc1F)C(C)C)CC2 [Example 124, (R)-2-Fluoro-N-(1-(1-isopentyl-3-methyl-2,4-dioxo-1,3,8-triazaspiro[4.5]decan-8-yl)-3-methyl-1-oxobutan-2-yl)-5-(trifluoromethyl)benzamide]",< 0.5
18,"CC(C)[C@@H](NC(=O)c1cc(C(F)(F)F)ccc1F)C(=O)N1CCC2(CC1)C(=O)N(C)C(=O)N2C1CCCC1 [Example 125, (R)—N-(1-(1-Cyclopentyl-3-methyl-2,4-dioxo-1,3,8-triazaspiro[4.5]decan-8-yl)-3-methyl-1-oxobutan-2-yl)-2-fluoro-5-(trifluoromethyl)benzamide]",< 0.5
19,"CC(C)[C@@H](NC(=O)c1cc(C(F)(F)F)ccc1F)C(=O)N1CCC2(CC1)NC(=O)N(C)C2=O [Example 126, (R)-2-Fluoro-N-(3-methyl-1-(3-methyl-2,4-dioxo-1,3,8-triazaspiro[4.5]decan-8-yl)-1-oxobutan-2-yl)-5-(trifluoromethyl)benzamide]",≥ 1
20,"COC(=O)Nc1ccc(N2C(=O)N(C)C(=O)C23CCN(C(=O)[C@H](NC(=O)c2cc(C(F)(F)F)ccc2F)C(C)C)CC3)cc1 [Example 127, (R)-Methyl-4-(8-(2-(2-fluoro-5-(trifluoromethyl)benzamido)-3-methylbutanoyl)-3-methyl-2,4-dioxo-1,3,8-triazaspiro[4.5]decan-1-yl)phenylcarbamate]",0.5 to 1
21,"CC(C)[C@@H](NC(=O)c1cc(C(F)(F)F)ccc1F)C(=O)N1CCC2(CC1)C(=O)N(C)C(=O)N2c1ccc(NC(=O)C2CC2)cc1 [Example 128, (R)—N-(1-(1-(4-(Cyclopropanecarboxamido)phenyl)-3-methyl-2,4-dioxo-1,3,8-triazaspiro[4.5]decan-8-yl)-3-methyl-1-oxobutan-2-yl)-2-fluoro-5-(trifluoromethyl)benzamide]",0.5 to 1
22,"Cc1cccc(C(=O)N[C@H](C(=O)N2CCC3(CC2)C(=O)N(C)CN3c2ccccc2)C2CCOCC2)c1 [Example 130, (S)-3-Methyl-N-(2-(3-methyl-4-oxo-1-phenyl-1,3,8-triazaspiro[4.5]decan-8-yl)-2-oxo-1-(tetrahydro-2H-pyran-4-yl)ethyl)benzamide]",≥ 1
23,"Cc1cccc(C(=O)N[C@@H](C(=O)N2CCC3(CC2)C(=O)N(C)CN3c2ccccc2)C2CCCCC2)n1 [Example 131, (R)—N-(1-Cyclohexyl-2-(3-methyl-4-oxo-1-phenyl-1,3,8-triazaspiro[4.5]decan-8-yl)-2-oxoethyl)-6-methylpicolinamide trifluoroacetic Acid Salt]",< 0.5
24,"CCc1ccc(F)c(C(=O)N[C@@H](C(=O)N2CCC3(CC2)C(=O)N(C)CN3c2ccccc2)[C@H](C)OC)c1 [Example 133, 5-Ethyl-2-fluoro-N-((2R,3S)-3-methoxy-1-(3-methyl-4-oxo-1-phenyl-1,3,8-triazaspiro[4.5]decane-8-yl)-1-oxobutan-2-yl)benzamide]",< 0.5
25,"CO[C@@H](C)[C@@H](NC(=O)c1cccc(C)c1)C(=O)N1CCC2(CC1)C(=O)N(C)CN2c1ccccc1 [Example 134, N-((2R,3S)-3-Methoxy-1-(3-methyl-4-oxo-1-phenyl-1,3,8-triazaspiro[4.5]decan-8-yl)-1-oxobutan-2-yl)-3-methylbenzamide]",< 0.5
26,"CCc1cccc(C(=O)N[C@@H](C(=O)N2CCC3(CC2)C(=O)N(C)CN3c2ccccc2)[C@H](C)OC)c1 [Example 135, 3-Ethyl-N-((2R,3S)-3-methoxy-1-(3-methyl-4-oxo-1-phenyl-1,3,8-triazaspiro[4.5]decan-8-yl)-1-oxobutan-2-yl)benzamide]",< 0.5
